{
  "source": "patent US20240416143A1",
  "about": "“PHOTONIC ANTIMICROBIAL WOUND SURFACE DRESSING” (The General Hospital Corporation, priority 2021, published 2024)",
  "key": {"[1]": {"test": "Solubility of menadione in aqueous solution", "format": "physicochemical", "method": "Thus, we dissolved the menadione in two conditions: in PBS containing either 1% DMSO or 1% DMSO/Tween80 at 400 μM. Tween 80 is a surfactant and the idea is to mix with the DMSO before to add to PBS is due to necessity to improve the solubility of menadione in aqueous solution. We measured the absorption spectrum in both conditions to analyze if there is any change in optical properties. The range of wavelength absorption of menadione was measured between 200-800 nm (see FIG. 12B) to choose the optimum wavelength of the light absorption spectra. […] The maximum wavelength of absorption found was 340 nm for both conditions. […] The molar absorptivity coefficient was compared in different wavelength according with the Table 1."}, "MRSA biofilm": {"tested_on": "MRSA biofilm", "test": "Photoinactivation of 48-hour in vitro biofilms by adjuvant/antibiotic + antimicrobial blue light", "format": "cell-based, methicillin-resistant Staphylococcus aureus", "conditions": "for Bacterial Log10 CFU/mL Reduction after menadione + aBL: MRSA USA 300 biofilm 48 h", "method": "The bacterial suspension was grown in a shaking incubator overnight in BHI broth. Cells were collected by centrifugation at 4,000 rpm for 5 minutes and suspended in PBS at a density of 10^6 CFU/mL. Then, the biofilms were grown for 48 hours (unless otherwise specified) in 96-well microtiter plates as described previously [Ref. 27], with a renewal of the media every 24 hours. Following the 48-hour biofilm growth, fresh 200 μL of PBS with or without menadione in different concentrations were added to the wells and the biofilms were incubated in the dark at 25° C. for 1 hour: 0, 0.5, 1, and 2 μg/mL for MRSA USA300, AF0001, IQ0064; 0, 1, 10, 30 and 50 μg/mL for P. aeruginosa PA01; and 0, 100, and 150 μg/mL for E. coli ATCC 25922. After that, the control and the menadione-treated biofilms were maintained without irradiation (“menadione/dark”). Simultaneously, the aBL was delivered to the other biofilm groups testing different power densities (50, 30, 15, and 10 mW/cm^2) while keeping the same radiant exposure of 250 J/cm^2. After the light exposure, the biofilms were carefully washed two times with PBS and 200 μL of PBS was added to each well. Then, the bacterial biofilms in each well were harvested by scratching with a sterile pipette tip and three wells of each group were pooled together in a 1.5 mL microcentrifuge tube. The total volume obtained, 600 μL (3 wells), was sonicated using a Branson 2510 Water Bath Sonicator (Marshall Scientific, LLC) for 5 minutes and the CFU was determined by 10-fold serial dilutions in PBS on BHI agar plates. CFU was counted after overnight incubation at 37° C. Experiments were performed in triplicate.\nA bacterial suspension was grown in a shaking incubator overnight in BHI broth. Cells were collected by centrifugation at 4,000 rpm for 5 minutes and suspended in PBS at a density of 10^6 CFU/mL. Then, the biofilms were grown for 48 hours in 96-well microtiter plates with a renewal of the media every 24 hours. Following the 48-hour biofilm growth, fresh 200 μL of PBS with the tetracyclines minocycline, doxycycline, and demeclocycline in different concentrations were added to the wells and the biofilms were incubated in the dark at 25° C. for 1 hour: 0, 0.25, 0.5, and 1 μg/mL for minocycline; 0, 0.5, 1, and 2 μg/mL for doxycycline; and 0, 0.5, 1, and 2 for demeclocycline. After that, the control and the tetracycline-treated biofilms were maintained without irradiation (“menadione/dark”). Simultaneously, the aBL (405 nm) was delivered to the other biofilm groups testing different power densities (50, 30 mW/cm^2) while keeping the radiant exposures of 50-250 J/cm^2. After the light exposure, the biofilms were carefully washed two times with PBS and 200 μL of PBS was added to each well. Then, the bacterial biofilms in each well were harvested by scratching with a sterile pipette tip and three wells of each group were pooled together in a 1.5 mL microcentrifuge tube. The total volume obtained, 600 μL (3 wells), was sonicated using a Branson 2510 Water Bath Sonicator (Marshall Scientific, LLC) for 5 minutes and the CFU/mL was determined by 10-fold serial dilutions in PBS on BHI agar plates. CFU was counted after overnight incubation at 37° C."}, "[2]": {"tested_on": "E. coli biofilms in ex-vivo explants", "test": "Photoinactivation of biofilms in ex vivo porcine partial thickness wounds by menadione + aBL", "format": "cell-based, Escherichia coli", "method": "Skin was handled and sanitized with 70% isopropanol solution after hair shaving. The explants and inner wounds were created using a 12 mm and 4 mm biopsy punches respectively. The explants were placed in 12 wells plates using a (8 μm pore) inserts (Corning™ Falcon™). 1 mL of DMEM media was added to each well in the plate before the insert. After 24 hours, the inner wounds in the explants were inoculated with 20 μL of 10^8 CFU/mL of bacterial solution. After that, the explants were incubated at 37° C. and 5% CO2 for 48 hours to ensure the growth of a mature bacterial biofilm. The inner wounds of the explants were replenished daily with fresh BHI media to ensure that the wounds are hydrated.\n48 hours following the inoculation, mature monobacterial biofilms of MRSA, P. aeruginosa, and E. coli were obtained with 8.00 log10 CFU/g per wound bed on each explant. MRSA biofilms in explant were reduced by 0.81 log10 CFU/g after the treatment of just aBL 250 J/cm^2 (50 mW/cm^2). However, MRSA biofilms in ex-vivo porcine skin were reduced by up to 4.18 log10 CFU/g when treated with aBL combined with menadione (200 μg/mL). For MRSA biofilms, the log reduction of mature monobacterial biofilm increased as the menadione concentration increased (see FIGS. 16A-16B). […]"}, "NorA efflux pump": {"biological_target": "NorA efflux pump (Staphylococcus aureus, UniProt P0A0J7)", "sequence (P0A0J7 whole entry)": "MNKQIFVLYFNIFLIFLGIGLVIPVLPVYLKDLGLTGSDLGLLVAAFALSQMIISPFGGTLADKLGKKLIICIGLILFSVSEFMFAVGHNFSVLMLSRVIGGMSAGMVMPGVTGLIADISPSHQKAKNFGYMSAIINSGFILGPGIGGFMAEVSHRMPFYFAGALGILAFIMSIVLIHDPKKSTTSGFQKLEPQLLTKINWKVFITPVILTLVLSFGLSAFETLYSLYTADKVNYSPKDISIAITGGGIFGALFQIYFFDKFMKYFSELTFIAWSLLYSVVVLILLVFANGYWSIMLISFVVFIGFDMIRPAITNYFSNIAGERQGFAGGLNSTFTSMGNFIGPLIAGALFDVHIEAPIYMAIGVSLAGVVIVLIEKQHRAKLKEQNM", "conditions": "cited from earlier work"}},
  "data": [
    {"smiles": "CC1=CC(=O)c2ccccc2C1=O", "note": "[menadione, 2-methyl-1,4-naphthoquinone]", "values": [
      {"measurement": "solubility in aqueous solution", "setting": "[1]; PBS with 1% DMSO/Tween80 vs 1% DMSO", "value": "best solubility"},
      {"measurement": "solubility in water", "setting": "[1]; water", "value": "not soluble in water"},
      {"measurement": "biofilm reduction by menadione without irradiation", "setting": "MRSA biofilm; 48 h biofilm, dark", "value": "< 1", "unit": "log killing"},
      {"measurement": "biofilm killed by menadione plus aBL", "setting": "MRSA biofilm; 48 h biofilm, 1 μg/mL menadione + aBL 250 J/cm^2 (50 mW/cm^2)", "value": 4.85, "unit": "log10 CFU/mL"},
      {"measurement": "biofilm killed by menadione plus aBL", "setting": "MRSA biofilm; 48 h biofilm, 1 μg/mL menadione + aBL 250 J/cm^2 at 15 mW/cm^2", "value": 3.01, "unit": "log10 CFU/mL"},
      {"measurement": "Bacterial Log10 CFU/mL Reduction after menadione + aBL", "setting": "MRSA biofilm; 10 mW/cm^2, 250 J/cm^2, 6 hours 56 minutes", "value": "−1.91", "unit": "Log10 CFU/mL"},
      {"measurement": "Bacterial Log10 CFU/mL Reduction after menadione + aBL", "setting": "MRSA biofilm; 15 mW/cm^2, 250 J/cm^2, 4 hours 37 minutes", "value": "−3.01", "unit": "Log10 CFU/mL"},
      {"measurement": "Bacterial Log10 CFU/mL Reduction after menadione + aBL", "setting": "MRSA biofilm; 30 mW/cm^2, 250 J/cm^2, 2 hours 18 minutes", "value": "−2.28", "unit": "Log10 CFU/mL"},
      {"measurement": "Bacterial Log10 CFU/mL Reduction after menadione + aBL", "setting": "MRSA biofilm; 50 mW/cm^2, 250 J/cm^2, 1 hours 23 minutes", "value": "−4.85", "unit": "Log10 CFU/mL"},
      {"measurement": "Bacterial Log10 CFU/mL Reduction after menadione + aBL", "setting": "MRSA biofilm; power density 0 mW/cm^2", "value": 0, "unit": "Log10 CFU/mL"},
      {"measurement": "response of biofilms to aBL and menadione", "setting": "[2]", "value": "did not respond"},
      {"measurement": "inhibition of efflux pump gene expression and efflux pump function", "setting": "NorA efflux pump", "value": "significant inhibition"}
    ]}
  ]
}
